Paper PMC8312610, “F4, a collagen XIX-derived peptide, inhibits tumor angiogenesis through αvβ3 and α5β1 integrin interaction” (Cell Adhesion & Migration, 2021)
Positions of bridges follow the written chain, without caps; N, C: chain ends. No end group written: not given here.

Key:
Assay type in all cases: binding, human
[1] = test system: αvβ3 integrin; test: Solid phase competition assay with biotinylated-F4, αvβ3; conditions: unlabeled F4, molar ratio 1/0 to 1/125, integrin coated at 26 × 10^−7 mol/L, 90 min, room temperature, N = 2
Excerpt: Figure 5. F4 directly binds to αvβ3 and α5β1 integrins. Direct interaction between αvβ3 or α5β1 integrin and F4 was studied using solid phase assays as described in the material and method section. The F4 peptide was biotinylated to allow its detection using the streptavidin-peroxidase complex. Different conditions were used. (a-b) The amounts of coated αvβ3 (a) or α5β1 integrin (b) were increased while biotinylated F4 peptide was kept constant. (c-d) The concentration of biotinylated F4 peptide was increased while coated amounts of αvβ3 (c) or α5β1 (d) integrins were kept constant. (e-f) Competitive assays were performed using increasing concentrations of F4 peptide while biotinylated-F4 peptide and αvβ3 (e) or α5β1 (f) integrins were kept constant. The solid phase assays were repeated twice (N = 2; n = 2)
Wells of a 96-well plate were coated with α5β1 (ref. 3230-A5-050, R&D systems) and/or αvβ3 integrin (ref. 3050-AV-050, R&D systems) at different concentrations ranging from 26 × 10^−7 mol/L to 0.1 × 10^−7 mol/L (100 μL per well in PBS). The 96-well plate was left overnight at room temperature. The coating was then blocked with TBS containing 5% nonfat dry milk, 1 mM MgCl2 and 1 mM CaCl2 for 2 h at room temperature. […] The intensity of the yellow coloration was measured at 450 nm with an LB940 spectrophotometer (Berthold Technologies). […]

[2] = test system: αvβ3 integrin; test: F4 affinity chromatography of HUVEC extracts with western blot; conditions: HUVEC protein extract, F4 peptide-Sepharose (F4 reduced with DTT), NaCl elution 0.15, 0.6 and 1.0 M, +4°C, N = 2
Protocol: (§1) HUVEC were cultured as previously described in a Nunclon® 150 cm^2 flask. At 80%-confluence, cells were washed with HBSS and scrapped in lysis buffer (RIPA buffer, Sigma, ref R0278-50ML) supplemented with 1% (v/v) Halt Protease Inhibitor Cocktail (ThermoFisher, ref 78430). Cell lysates were incubated for 30 min at +4°C and vortexed every 5 min. Unsoluble debris were pelleted by centrifugation at 10,000 g for 10 min at +4°C. Bio-Rad Protein Assay (Bio-Rad, Marne-La-Coquette, France) was used to determine the protein concentrations according to the manufacturer’s instructions. […] HUVEC protein extracts were chromatographed at +4°C. Unbound protein were removed with 30 mL of washing buffer (10 mM Tris, 1 mM CaCl2, 1 mM MgCl2, pH 7.6, 1% (v/v) Protease Inhibitor Cocktail and 0.1% (w/v) octylglucoside (Sigma, ref O8001-100 MG)) according to the manufacturer’s instructions. Proteins bound to the affinity column were then eluted with elution buffer (10 mM Tris, pH 7.6, 1% (w/v) PIC and 0.1% (w/v) octylglucoside) supplemented with increasing concentrations of NaCl (0.15, 0.6 and 1 M). Absorbance was read at 280 nm to check protein elution and fractions corresponding to the different NaCl concentrations were pooled and concentrated using NanoSep Centrifugal Devices (cutoff 10 kDa; Pall). […]

[3] = test system: α5β1 integrin; test: as above; conditions: HUVEC protein extract, F4 peptide-Sepharose (F4 reduced with DTT), NaCl elution 0.15, 0.6 and 1.0 M, +4°C, N = 2
Protocol: as §1

CNPEDCLYPVSHAHQR (disulfide 1-6 (inferred)) [F4, collagen XIX-derived peptide, released by plasmin from type XIX collagen]
competition with biotinylated-F4 binding to αvβ3 [1]: decreased consequently | αv and β3 subunits bound to F4 column (western blot) [2]: two bands which matched the 150 and 110 kDa bands of the recombinant αvβ3 integrin | α5 and β1 subunits bound to F4 column (western blot) [3]: two bands in 0.6 M NaCl eluted sample which matched the 140 and 120 kDa bands of the recombinant α5β1 integrin
